Test results taken from patent publication US8455475B2 (Gruenenthal GmbH, priority 2009, dated 2013).
Structures can show the parent of a compound that is named as a salt.

Experiments:
[1] = target: T1, human B1R (bradykinin receptor 1) (Homo sapiens, UniProt P46663); test: FLIPR Ca2+ assay (Fluo-4) on CHO K1 cells stably transfected with the human B1R gene (hB1R cells): % inhibition at 10 μM / IC50, agonist Lys-Des-Arg9-bradykinin; assay type: cell-based; conditions: CHO-K1, human B1R
T1 construct: expressed in transfected cells; host or cells: CHO K1 cells
T1 sequence (P46663 1-353): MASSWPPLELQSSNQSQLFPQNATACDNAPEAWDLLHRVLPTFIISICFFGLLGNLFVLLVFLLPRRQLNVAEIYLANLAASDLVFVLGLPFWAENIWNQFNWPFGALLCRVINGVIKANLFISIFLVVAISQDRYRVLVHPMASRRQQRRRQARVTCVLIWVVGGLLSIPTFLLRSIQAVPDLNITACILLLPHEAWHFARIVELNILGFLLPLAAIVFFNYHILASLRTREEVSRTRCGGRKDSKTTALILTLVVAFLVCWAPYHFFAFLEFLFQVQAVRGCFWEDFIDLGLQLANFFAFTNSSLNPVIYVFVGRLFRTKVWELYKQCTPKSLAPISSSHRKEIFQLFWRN
Procedure, shortened: (§1)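 Using a two-addition FLIPR protocol, compound (10 μM for % values; concentration series for IC50) was preincubated 10–20 min with Fluo-4-loaded B1R-expressing CHO K1 cells before EC80 agonist challenge. Suppression of Ca2+ inflow, read as peak fluorescence, is expressed relative to maximum achievable inhibition; duplicate/triplicate, ≥2 independent experiments.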

[2] = target: T2, rat B1R (bradykinin receptor 1) (Rattus norvegicus, UniProt P97583); test: FLIPR Ca2+ assay (Fluo-4) on CHO K1 cells stably transfected with the B1R gene of the rat (rB1R cells): % inhibition at 10 μM / IC50, agonist Des-Arg9-bradykinin; assay type: cell-based; conditions: CHO-K1, rat B1R
T2 construct: expressed in transfected cells; host or cells: CHO K1 cells
T2 sequence (P97583 1-337): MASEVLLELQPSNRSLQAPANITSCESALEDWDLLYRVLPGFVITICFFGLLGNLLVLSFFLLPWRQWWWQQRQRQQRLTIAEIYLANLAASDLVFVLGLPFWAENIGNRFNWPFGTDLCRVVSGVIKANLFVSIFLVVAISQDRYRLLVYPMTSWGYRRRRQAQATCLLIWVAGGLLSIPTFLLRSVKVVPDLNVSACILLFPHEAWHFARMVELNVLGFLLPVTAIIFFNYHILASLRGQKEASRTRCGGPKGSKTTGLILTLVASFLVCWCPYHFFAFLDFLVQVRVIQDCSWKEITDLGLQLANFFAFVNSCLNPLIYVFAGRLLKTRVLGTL
Procedure, shortened: as §1

Row | Structure (SMILES) | inhibition at 10 µM [1] [%] | inhibition at 10 µM [2] [%]
1 | O=C(c1ccc2c(c1)[C@H](NS(=O)(=O)c1ccccc1Cl)CCC2)N1CCC2(CCN(c3ccncc3)CC2)C1 [Example H-106, 2-Chloro-N-[(1R)-7-(8-pyridin-4-yl-3,8-diazaspiro[4.5]decane-3-carbonyl)-1,2,3,4-tetrahydro-naphthalen-1-yl]-benzenesulfonic acid amide] | 100 | 105
2 | O=C(N[C@@H]1CCOc2cc(C(F)(F)F)c(C(=O)N3CCC4(CCN(c5ccncc5)CC4)C3)cc21)c1ccccc1Cl [Example H-107, 2-Chloro-N-[(4R)-6-(8-pyridin-4-yl-3,8-diazaspiro[4.5]decane-3-carbonyl)-7-(trifluoromethyl)-3,4-dihydro-2H-chromen-4-yl]-benzamide] | 72 | 108
3 | Cc1cc(N2CCC3(CCN(C(=O)c4ccc5c(c4)[C@H](NC(=O)c4ccccc4Cl)CC5)C3)CC2)cc(C)n1 [Example H-111, 2-Chloro-N-[(1R)-6-[8-(2,6-dimethyl-pyridin-4-yl)-3,8-diazaspiro[4.5]decane-3-carbonyl]-2,3-dihydro-1H-inden-1-yl]-benzamide hydrochloride] | 100 | 102
4 | O=C(c1ccc2c(c1)[C@H](NS(=O)(=O)c1ccccc1C(F)(F)F)CC2)N1CCC2(CCN(c3ccncc3)CC2)C1 [Example H-118, N-[(1R)-6-(8-Pyridin-4-yl-3,8-diazaspiro[4.5]decane-3-carbonyl)-2,3-dihydro-1H-inden-1-yl]-2-(trifluoromethyl)-benzenesulfonic acid amide] | 100 | 101
5 | O=C(N[C@@H]1CCc2ccc(C(=O)N3CCC4(CCC(OCCn5ccnc5)CC4)CC3)cc21)c1ccccc1Cl [Example H-120, 2-Chloro-N-[6-[9-[2-(1H-imidazol-1-yl)-ethoxy]-3-azaspiro[5.5]undecane-3-carbonyl]-2,3-dihydro-1H-inden-1-yl]-benzamide] | 65 | 104
6 | O=C(NC1CCc2ccc(C(=O)N3CCC4(CCC(O)(c5ccncc5)CC4)C3)cc21)c1ccccc1Cl (stereo not shown) [Example H-128, 2-Chloro-N-[6-(8-hydroxy-8-pyridin-4-yl-3-azaspiro[4.5]decane-3-carbonyl)-2,3-dihydro-1H-inden-1-yl]-benzamide] | 38 | 36
7 | O=C(NC1CCc2ccc(C(=O)N3CCC4(CCN(c5cc[n+]([O-])cc5)CC4)C3)cc21)c1ccccc1Cl (stereo not shown) [Example H-129, 2-Chloro-N-[6-[8-(1-oxido-pyridin-1-ium-4-yl)-3,8-diazaspiro[4.5]decane-3-carbonyl]-2,3-dihydro-1H-inden-1-yl]-benzamide] | 100 | 102
8 | O=C(NC1CCc2ccc(C(=O)N3CCC4(CCN(c5ncc(C(F)(F)F)cn5)CC4)C3)cc21)c1ccccc1Cl (stereo not shown) [Example H-130, 2-Chloro-N-[6-[8-[5-(trifluoromethyl)-pyrimidin-2-yl]-3,8-diazaspiro[4.5]decane-3-carobnyl]-2,3-dihydro-1H-inden-1-yl]-benzamide] | 94 | 99
9 | O=C(NC1CCc2ccc(C(=O)N3CCC4(CCC(n5ccnc5)CC4)CC3)cc21)c1ccccc1Cl (stereo not shown) [Example H-131, 2-Chloro-N-[6-[9-(1H-imidazol-1-yl)-3-azaspiro[5.5]undecane-3-carbonyl]-2,3-dihydro-1H-inden-1-yl]-benzamide] | 74 | 102
10 | CC1(C)CC(NC(=O)c2ccccc2Cl)c2cc(C(=O)N3CCC4(CCN(c5ccncc5)CC4)C3)ccc21 (stereo not shown) [Example H-132, 2-Chloro-N-[3,3-dimethyl-6-(8-pyridin-4-yl-3,8-diazaspiro[4.5]decane-3-carbonyl)-1,2-dihydro-inden-1-yl]-benzamide] | 100 | 102
11 | O=C(NC1CCc2ccc(C(=O)N3CCC4(CCC(c5ccncc5)CC4)C3)cc21)c1ccccc1Cl (stereo not shown) [Example H-133, 2-Chloro-N-[6-(8-pyridin-4-yl-3-azaspiro[4.5]decane-3-carbonyl)-2,3-dihydro-1H-inden-1-yl]-benzamide] | 65 | 100

Second part, the compound after the results:

Row | inhibition at 10 µM [1] [%] | inhibition at 10 µM [2] [%] | Structure (SMILES)
12 | 101 | 109 | Cc1cccc(C)c1C(=O)N[C@@H]1CCc2ccc(C(=O)N3CCC4(CCN(c5ccncc5)CC4)C3)cc21 [Example H-104, 2,6-Dimethyl-N-[(1R)-6-(8-pyridin-4-yl-3,8-diazaspiro[4.5]decane-3-carbonyl)-2,3-dihydro-1H-inden-1-yl]-benzamide]
13 | 100 | 107 | O=C(c1ccc2c(c1)[C@H](NS(=O)(=O)c1ccccc1Cl)CC2)N1CCC2(CCN(c3ccncc3)CC2)C1 [Example H-105, 2-Chloro-N-[(1R)-6-(8-pyridin-4-y-3,8-diazaspiro[4.5]decane-3-carbonyl)-2,3-dihydro-1H-inden-1-yl]-benzenesulfonic acid amide]
14 | 100 | 111 | COc1ccc(C(=O)N[C@@H]2CCc3ccc(C(=O)N4CCC5(CCN(c6ccncc6)CC5)C4)cc32)c(F)c1 [Example H-108, 2-Fluoro-4-methoxy-N-[(1R)-6-(8-pyridin-4-yl-3,8-diazaspiro[4.5]decane-3-carbonyl)-2,3-dihydro-1H-inden-1-yl]-benzamide]
15 | 100 | 109 | O=C(N[C@@H]1CCc2ccc(C(=O)N3CCC4(CCN(c5ccncc5)CC4)C3)cc21)c1c(F)cccc1Cl [Example H-109, 2-Chloro-6-fluoro-N-[(1R)-6-(8-pyridin-4-yl-3,8-diazaspiro[4.5]decane-3-carbonyl)-2,3-dihydro-1H-inden-1-yl]-benzamide]
16 | 101 | 108 | O=C(N[C@@H]1CCc2ccc(C(=O)N3CCC4(CCN(c5ccncc5)CC4)C3)cc21)c1c(F)cccc1C(F)(F)F [Example H-110, 2-Fluoro-N-[(1R)-6-(8-pyridin-4-yl-3,8-diazaspiro[4.5]decane-3-carbonyl)-2,3-dihydro-1H-inden-1-yl]-6-(trifluoromethyl)-benzamide]
17 | 100 | 102 | Cc1cc(N2CCC3(CCN(C(=O)c4ccc5c(c4)[C@H](NC(=O)c4ccccc4Cl)CC5)C3)CC2)ccn1 [Example H-112, 2-Chloro-N-[(1R)-6-[8-(2-methyl-pyridin-4-yl)-3,8-diazaspiro[4.5]decane-3-carbonyl]-2,3-dihydro-1H-inden-1-yl]-benzamide]
18 | 99 | 92 | O=C(c1ccc2c(c1)[C@H](NS(=O)(=O)c1cccc(Cl)c1Cl)CC2)N1CCC2(CCN(c3ccncc3)CC2)C1 [Example H-113, 2,3-Dichloro-N-[(1R)-6-(8-pyridin-4-yl-3,8-diazaspiro[4.5]decane-3-carbonyl)-2,3-dihydro-1H-inden-1-yl]-benzenesulfonic acid amide]
19 | 100 | 102 | Cc1ncccc1C(=O)N[C@@H]1CCc2ccc(C(=O)N3CCC4(CCN(c5ccncc5)CC4)C3)cc21 [Example H-114, 2-Methyl-N-[(1R)-6-(8-pyridin-4-yl-3,8-diazaspiro[4.5]decane-3-carbonyl)-2,3-dihydro-1H-inden-1-yl]-pyridine-3-carboxylic acid amide]
20 | 100 | 101 | O=C(N[C@@H]1CCc2ccc(C(=O)N3CCC4(CCN(c5ccncc5)CC4)C3)cc21)c1cnccc1C(F)(F)F [Example H-115, N-[(1R)-6-(8-Pyridin-4-yl-3,8-diazaspiro[4.5]decane-3-carbonyl)-2,3-dihydro-1H-inden-1-yl]-4-(trifluoromethyl)-pyridine-3-carboxylic acid amide]
21 | 100 | 101 | O=C(c1ccc2c(c1)[C@H](NS(=O)(=O)c1ccccc1F)CC2)N1CCC2(CCN(c3ccncc3)CC2)C1 [Example H-116, 2-Fluoro-N-[(1R)-6-(8-pyridin-4-yl-3,8-diazaspiro[4.5]decane-3-carbonyl)-2,3-dihydro-1H-inden-1-yl]-benzenesulfonic acid amide]
22 | 100 | 101 | Cc1ccccc1S(=O)(=O)N[C@@H]1CCc2ccc(C(=O)N3CCC4(CCN(c5ccncc5)CC4)C3)cc21 [Example H-117, 2-Methyl-N-[(1R)-6-(8-pyridin-4-yl-3,8-diazaspiro[4.5]decane-3-carbonyl)-2,3-dihydro-1H-inden-1-yl]-benzensulfonic acid amide]
23 | 100 | 100 | O=C(c1ccc2c(c1)[C@H](NS(=O)(=O)c1c(Cl)cccc1Cl)CC2)N1CCC2(CCN(c3ccncc3)CC2)C1 [Example H-119, 2,6-Dichloro-N-[(1R)-6-(8-pyridin-4-yl-3,8-diazaspiro[4.5]decane-3-carbonyl)-2,3-dihydro-1H-inden-1-yl]-benzenesulfonic acid amide]
